Source: the NIST ThermoML archive (doi:10.1016/j.fluid.2011.06.001)
Numbers after ± are expanded uncertainties.

Experiments:
[1] = Liquid, Closed cell (Static) method
[2] = excess molar enthalpy (molar enthalpy of mixing); xn = mol fraction of the nth substance listed; settings: 298.15 K, 101 kPa, Liquid, Flow calorimetry

Compound: CC(C)CCl [1-chloro-2-methylpropane]
- vapor or sublimation pressure ([1]; 288.15 K): 13 ± 0.034 kPa
- vapor or sublimation pressure ([1]; 298.15 K): 20.35 ± 0.048 kPa
- vapor or sublimation pressure ([1]; 308.15 K): 30.45 ± 0.066 kPa

Compound: CC(C)CCl [1-chloro-2-methylpropane] + CC(C)OC(C)C
- excess molar enthalpy ([2]; x1 = 0.0907): -0.00722 ± 0.000263 kcal/mol
- excess molar enthalpy ([2]; x1 = 0.1815): -0.0129 ± 0.000359 kcal/mol
- excess molar enthalpy ([2]; x1 = 0.2726): -0.0175 ± 0.000454 kcal/mol
- excess molar enthalpy ([2]; x1 = 0.3634): -0.0206 ± 0.000526 kcal/mol
- excess molar enthalpy ([2]; x1 = 0.4544): -0.0227 ± 0.00055 kcal/mol
- excess molar enthalpy ([2]; x1 = 0.5453): -0.0229 ± 0.000574 kcal/mol
- excess molar enthalpy ([2]; x1 = 0.6361): -0.0219 ± 0.00055 kcal/mol
- excess molar enthalpy ([2]; x1 = 0.727): -0.0189 ± 0.000478 kcal/mol
- excess molar enthalpy ([2]; x1 = 0.8179): -0.0147 ± 0.000406 kcal/mol
- excess molar enthalpy ([2]; x1 = 0.909): -0.00822 ± 0.000287 kcal/mol

Compound: CCCCCl [1-chlorobutane]
- vapor or sublimation pressure ([1]; 288.15 K): 8.4 ± 0.025 kPa
- vapor or sublimation pressure ([1]; 298.15 K): 13.52 ± 0.034 kPa
- vapor or sublimation pressure ([1]; 308.15 K): 21.04 ± 0.048 kPa

Compound: CCCCCl [1-chlorobutane] + CC(C)OC(C)C
- excess molar enthalpy ([2]; x1 = 0.0908): -0.00684 ± 0.000263 kcal/mol
- excess molar enthalpy ([2]; x1 = 0.1817): -0.0131 ± 0.000382 kcal/mol
- excess molar enthalpy ([2]; x1 = 0.2726): -0.0175 ± 0.000454 kcal/mol
- excess molar enthalpy ([2]; x1 = 0.3636): -0.0209 ± 0.000526 kcal/mol
- excess molar enthalpy ([2]; x1 = 0.4545): -0.0228 ± 0.000574 kcal/mol
- excess molar enthalpy ([2]; x1 = 0.5453): -0.0228 ± 0.000574 kcal/mol
- excess molar enthalpy ([2]; x1 = 0.6363): -0.0216 ± 0.00055 kcal/mol
- excess molar enthalpy ([2]; x1 = 0.7273): -0.0188 ± 0.000478 kcal/mol
- excess molar enthalpy ([2]; x1 = 0.818): -0.014 ± 0.000382 kcal/mol
- excess molar enthalpy ([2]; x1 = 0.909): -0.00774 ± 0.000263 kcal/mol

Compound: CC(C)(C)Cl [2-chloro-2-methylpropane]
- vapor or sublimation pressure ([1]; 288.15 K): 26.42 ± 0.062 kPa
- vapor or sublimation pressure ([1]; 298.15 K): 40.13 ± 0.087 kPa
- vapor or sublimation pressure ([1]; 308.15 K): 59.52 ± 0.12 kPa

Compound: CC(C)(C)Cl [2-chloro-2-methylpropane] + CC(C)OC(C)C
- excess molar enthalpy ([2]; x1 = 0.1093): 0.00108 ± 0.000191 kcal/mol
- excess molar enthalpy ([2]; x1 = 0.2192): 0.00167 ± 0.000191 kcal/mol
- excess molar enthalpy ([2]; x1 = 0.3295): 0.00191 ± 0.000191 kcal/mol
- excess molar enthalpy ([2]; x1 = 0.4402): 0.00196 ± 0.000191 kcal/mol
- excess molar enthalpy ([2]; x1 = 0.5512): 0.0017 ± 0.000191 kcal/mol
- excess molar enthalpy ([2]; x1 = 0.6628): 0.00127 ± 0.000191 kcal/mol
- excess molar enthalpy ([2]; x1 = 0.7747): 0.000837 ± 0.000191 kcal/mol
- excess molar enthalpy ([2]; x1 = 0.8872): 0.000311 ± 0.000191 kcal/mol

Compound: CCC(C)Cl (stereo not drawn) [2-chlorobutane]
- vapor or sublimation pressure ([1]; 288.15 K): 13.36 ± 0.035 kPa
- vapor or sublimation pressure ([1]; 298.15 K): 20.91 ± 0.049 kPa
- vapor or sublimation pressure ([1]; 308.15 K): 31.55 ± 0.068 kPa

Compound: CCC(C)Cl (stereo not drawn) [2-chlorobutane] + CC(C)OC(C)C
- excess molar enthalpy ([2]; x1 = 0.0909): -0.00368 ± 0.000215 kcal/mol
- excess molar enthalpy ([2]; x1 = 0.1819): -0.00717 ± 0.000263 kcal/mol
- excess molar enthalpy ([2]; x1 = 0.2726): -0.0104 ± 0.000311 kcal/mol
- excess molar enthalpy ([2]; x1 = 0.3636): -0.0125 ± 0.000359 kcal/mol
- excess molar enthalpy ([2]; x1 = 0.4546): -0.0137 ± 0.000382 kcal/mol
- excess molar enthalpy ([2]; x1 = 0.5454): -0.0144 ± 0.000406 kcal/mol
- excess molar enthalpy ([2]; x1 = 0.6365): -0.0143 ± 0.000406 kcal/mol
- excess molar enthalpy ([2]; x1 = 0.7273): -0.0127 ± 0.000359 kcal/mol
- excess molar enthalpy ([2]; x1 = 0.8182): -0.00985 ± 0.000311 kcal/mol
- excess molar enthalpy ([2]; x1 = 0.9092): -0.006 ± 0.000239 kcal/mol

Compound: CC(C)OC(C)C [diisopropyl ether]
- vapor or sublimation pressure ([1]; 288.15 K): 12.65 ± 0.034 kPa
- vapor or sublimation pressure ([1]; 298.15 K): 20 ± 0.047 kPa
- vapor or sublimation pressure ([1]; 308.15 K): 30.46 ± 0.066 kPa
